Measured values from article PMC4579270, “Identification and Characterization of an Irreversible Inhibitor of CDK2” (Chemistry & Biology, 2015).
Read-outs that look alike come from different tables or passages of the source.

How the values were obtained:
AMPK (hum) = assay: Dundee kinase screen re-test (standard format and 4 hour pre-incubation); format: biochemical, human
Protocol: (§1) Prior to determining its cellular activity, we carried out a screen to assess its selectivity against a panel of 131 protein kinases under conditions that would not distinguish between a reversible or irreversible mode of action. […] These 13 kinases and 29 additional kinases, selected for their known sensitivity to other inhibitors within the purine series, were then tested in a modified screening format in which the assay was repeated following a 4-hr pre-incubation (Table S3B). […] However, conformational flexibility around the active site may promote such an interaction with a residue from another part of the structure ([Martin et al., 2012]).
(§2) Table S3, Related to Figure 4. NCL-0006300 protein kinase selectivity. […]
(§3) Dundee protein kinase screen (Bain et al., 2007). […]
(§4) (B) Selected kinases were re-tested in the Dundee kinase screen against NU6300 at a single concentration of 0.5 µM both in the standard assay format and following a 4 hour pre-incubation in the presence of NU6300. Kinases which have very low activity after the 4 hour incubation so that results might not be wholly reliable are boxed in salmon. Kinases where the activity after a 4 hour pre-incubation is < 50% that in the standard assay format are highlighted in red.

GCK (MAP4K3) = assay: as above; format: biochemical
Protocol: as §1, §2, §4

RSK1 = RSK1 (Homo sapiens, UniProt Q15418); assay: as above; format: biochemical; settings: RSK1, 0.5µM
RSK1, sequence (Q15418 whole entry): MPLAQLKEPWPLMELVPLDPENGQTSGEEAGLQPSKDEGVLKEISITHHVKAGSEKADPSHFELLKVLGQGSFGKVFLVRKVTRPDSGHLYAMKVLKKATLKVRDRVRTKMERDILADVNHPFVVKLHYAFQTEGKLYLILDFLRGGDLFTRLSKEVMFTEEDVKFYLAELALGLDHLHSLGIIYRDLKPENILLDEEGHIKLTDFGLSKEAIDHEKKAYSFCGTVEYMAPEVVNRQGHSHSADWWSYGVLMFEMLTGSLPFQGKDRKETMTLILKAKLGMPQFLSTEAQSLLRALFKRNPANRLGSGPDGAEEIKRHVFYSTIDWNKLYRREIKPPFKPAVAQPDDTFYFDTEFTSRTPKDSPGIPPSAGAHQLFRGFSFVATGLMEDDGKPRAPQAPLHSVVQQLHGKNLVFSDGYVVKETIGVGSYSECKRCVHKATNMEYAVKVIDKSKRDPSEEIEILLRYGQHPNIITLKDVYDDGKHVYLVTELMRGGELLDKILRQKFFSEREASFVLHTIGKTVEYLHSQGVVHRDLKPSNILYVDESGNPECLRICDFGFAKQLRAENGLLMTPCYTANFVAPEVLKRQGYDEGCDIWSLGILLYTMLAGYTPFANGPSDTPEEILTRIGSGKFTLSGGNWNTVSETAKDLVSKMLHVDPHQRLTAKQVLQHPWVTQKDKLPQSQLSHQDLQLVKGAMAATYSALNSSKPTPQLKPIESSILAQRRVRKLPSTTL
Protocol: as §1, §2
(§5) Dundee protein kinase screen (Bain et al., 2007). Values given are % activity remaining and are the average of duplicate measurements: 0-25% (red), 26-50% (yellow), 51-80% […]
(§6) (black) and above 81% (green). […]
as §4

SIK2 = SIK2 (Homo sapiens, UniProt Q9H0K1); assay: as above; format: biochemical; settings: SIK2, 0.5µM
SIK2, sequence (Q9H0K1 whole entry): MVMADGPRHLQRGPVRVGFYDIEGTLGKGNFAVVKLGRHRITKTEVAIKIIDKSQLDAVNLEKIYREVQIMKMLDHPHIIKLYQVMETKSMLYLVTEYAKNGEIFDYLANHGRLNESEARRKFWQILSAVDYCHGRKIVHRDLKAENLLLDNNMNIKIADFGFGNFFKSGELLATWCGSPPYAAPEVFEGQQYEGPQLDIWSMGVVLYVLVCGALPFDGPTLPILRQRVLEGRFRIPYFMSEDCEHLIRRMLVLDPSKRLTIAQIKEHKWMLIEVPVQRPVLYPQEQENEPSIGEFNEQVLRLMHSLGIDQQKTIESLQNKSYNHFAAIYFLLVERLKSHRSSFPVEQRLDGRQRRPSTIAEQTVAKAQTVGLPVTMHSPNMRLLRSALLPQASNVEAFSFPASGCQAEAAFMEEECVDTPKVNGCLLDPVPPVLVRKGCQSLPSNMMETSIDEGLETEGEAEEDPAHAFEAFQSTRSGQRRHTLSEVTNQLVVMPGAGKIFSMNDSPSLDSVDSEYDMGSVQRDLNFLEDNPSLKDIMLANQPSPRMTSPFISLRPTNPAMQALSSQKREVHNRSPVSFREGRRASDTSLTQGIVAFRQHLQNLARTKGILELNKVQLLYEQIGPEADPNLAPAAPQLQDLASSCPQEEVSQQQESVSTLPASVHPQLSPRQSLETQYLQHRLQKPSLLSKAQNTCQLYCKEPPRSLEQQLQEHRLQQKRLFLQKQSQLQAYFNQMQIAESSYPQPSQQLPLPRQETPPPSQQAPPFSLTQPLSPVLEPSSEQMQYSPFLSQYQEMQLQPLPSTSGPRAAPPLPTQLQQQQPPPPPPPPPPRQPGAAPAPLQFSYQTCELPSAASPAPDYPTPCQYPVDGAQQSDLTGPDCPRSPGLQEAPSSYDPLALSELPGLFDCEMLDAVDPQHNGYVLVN
Protocol: as §1, §2, §5, §6, §4

TAK1 = target: T1, TAK1 (Homo sapiens, UniProt O43318); assay: as above; format: biochemical; settings: TAK1, 0.5µM
T1 sequence (O43318 1-303 limits assumed): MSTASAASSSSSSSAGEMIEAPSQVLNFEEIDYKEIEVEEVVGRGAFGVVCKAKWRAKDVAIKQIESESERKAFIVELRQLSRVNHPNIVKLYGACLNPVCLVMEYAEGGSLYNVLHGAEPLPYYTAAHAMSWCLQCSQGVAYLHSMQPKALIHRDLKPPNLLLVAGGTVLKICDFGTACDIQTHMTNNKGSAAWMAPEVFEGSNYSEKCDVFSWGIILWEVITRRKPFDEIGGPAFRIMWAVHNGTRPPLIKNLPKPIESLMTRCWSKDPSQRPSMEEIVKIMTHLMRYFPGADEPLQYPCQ
Protocol: as §1, §2, §5, §6, §4

ROCK 2 [1] = target: T2, ROCK 2 (Homo sapiens, UniProt O75116); assay: as above; format: biochemical; settings: ROCK 2, 0.5µM
T2 sequence (O75116 whole entry): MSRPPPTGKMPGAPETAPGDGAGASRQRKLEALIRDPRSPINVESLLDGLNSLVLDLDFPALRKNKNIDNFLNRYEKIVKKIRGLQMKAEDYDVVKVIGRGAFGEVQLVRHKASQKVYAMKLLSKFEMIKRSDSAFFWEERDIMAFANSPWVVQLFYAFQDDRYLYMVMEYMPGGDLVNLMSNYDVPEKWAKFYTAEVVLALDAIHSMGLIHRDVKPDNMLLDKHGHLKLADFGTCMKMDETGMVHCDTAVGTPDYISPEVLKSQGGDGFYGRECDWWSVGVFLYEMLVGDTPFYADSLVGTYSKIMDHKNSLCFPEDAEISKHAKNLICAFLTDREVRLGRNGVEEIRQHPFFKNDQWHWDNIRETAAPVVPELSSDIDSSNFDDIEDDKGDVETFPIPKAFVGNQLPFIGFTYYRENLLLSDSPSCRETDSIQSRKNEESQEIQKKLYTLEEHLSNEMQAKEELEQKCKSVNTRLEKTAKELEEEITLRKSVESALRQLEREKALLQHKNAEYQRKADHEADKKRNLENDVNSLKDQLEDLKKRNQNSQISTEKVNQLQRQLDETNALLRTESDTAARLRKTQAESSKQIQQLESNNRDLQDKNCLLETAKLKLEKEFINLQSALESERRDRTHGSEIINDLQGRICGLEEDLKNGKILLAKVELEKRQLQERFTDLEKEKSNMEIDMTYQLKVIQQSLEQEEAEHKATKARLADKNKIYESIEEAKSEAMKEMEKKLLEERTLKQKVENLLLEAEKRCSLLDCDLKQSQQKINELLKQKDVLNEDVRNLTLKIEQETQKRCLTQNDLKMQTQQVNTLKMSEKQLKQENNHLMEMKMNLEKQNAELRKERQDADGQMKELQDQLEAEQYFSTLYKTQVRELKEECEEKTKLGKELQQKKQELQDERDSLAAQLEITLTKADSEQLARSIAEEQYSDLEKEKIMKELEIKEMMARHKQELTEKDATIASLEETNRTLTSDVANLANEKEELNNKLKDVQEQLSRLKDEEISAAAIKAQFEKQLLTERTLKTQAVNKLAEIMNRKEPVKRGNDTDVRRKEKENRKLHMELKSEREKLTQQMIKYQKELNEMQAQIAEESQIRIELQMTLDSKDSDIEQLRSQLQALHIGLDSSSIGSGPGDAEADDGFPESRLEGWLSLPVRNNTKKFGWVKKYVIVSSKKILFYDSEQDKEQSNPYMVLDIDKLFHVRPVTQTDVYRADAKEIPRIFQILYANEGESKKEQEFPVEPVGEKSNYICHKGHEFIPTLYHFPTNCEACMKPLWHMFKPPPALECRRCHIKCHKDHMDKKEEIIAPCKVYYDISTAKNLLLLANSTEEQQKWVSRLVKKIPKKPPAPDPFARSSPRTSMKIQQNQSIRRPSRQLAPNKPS
Protocol: as §1, §2, §5, §6, §4

Src = Src (Homo sapiens, UniProt P12931); assay: as above; format: biochemical
Src, sequence (P12931 whole entry): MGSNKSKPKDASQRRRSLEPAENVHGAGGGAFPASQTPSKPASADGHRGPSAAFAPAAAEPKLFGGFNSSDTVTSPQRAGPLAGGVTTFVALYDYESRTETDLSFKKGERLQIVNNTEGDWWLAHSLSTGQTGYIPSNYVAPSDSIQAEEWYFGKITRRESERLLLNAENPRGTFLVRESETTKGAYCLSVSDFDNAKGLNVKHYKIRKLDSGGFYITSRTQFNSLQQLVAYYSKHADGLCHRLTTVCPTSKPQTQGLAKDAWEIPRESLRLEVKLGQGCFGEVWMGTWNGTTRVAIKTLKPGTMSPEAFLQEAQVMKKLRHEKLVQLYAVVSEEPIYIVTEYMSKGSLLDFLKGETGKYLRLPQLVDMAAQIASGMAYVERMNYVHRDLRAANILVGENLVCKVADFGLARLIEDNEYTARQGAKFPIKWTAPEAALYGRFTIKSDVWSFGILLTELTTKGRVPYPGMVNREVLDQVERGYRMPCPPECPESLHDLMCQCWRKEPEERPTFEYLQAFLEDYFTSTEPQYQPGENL
Protocol: as §1, §2, §5, §6, §4

GSK3b = GSK3b (Homo sapiens, UniProt P49841); assay: as above; format: biochemical
GSK3b, sequence (P49841 whole entry): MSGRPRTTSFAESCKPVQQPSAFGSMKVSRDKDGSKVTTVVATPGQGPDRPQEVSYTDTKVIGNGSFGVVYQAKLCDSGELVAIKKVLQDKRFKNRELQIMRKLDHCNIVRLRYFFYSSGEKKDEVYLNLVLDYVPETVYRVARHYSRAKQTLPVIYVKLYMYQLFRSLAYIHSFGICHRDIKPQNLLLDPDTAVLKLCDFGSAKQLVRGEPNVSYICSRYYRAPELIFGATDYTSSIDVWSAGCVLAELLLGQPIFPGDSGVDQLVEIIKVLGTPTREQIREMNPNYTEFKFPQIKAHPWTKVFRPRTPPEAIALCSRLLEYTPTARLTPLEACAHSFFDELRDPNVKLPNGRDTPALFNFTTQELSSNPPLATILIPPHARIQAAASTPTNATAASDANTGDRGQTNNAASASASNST
Protocol: as §1, §2, §3, §4

ROCK 2 [2] = target: T2, ROCK 2; assay: Dundee protein kinase screen; format: biochemical; settings: ROCK 2, 1µM; read-out: %Remaining activity at 1µM NU6300
Outline: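 Selectivity panel of 131 protein kinases, inhibitor tested at a single concentration of 1 µM; values are % kinase activity remaining, mean of duplicates. Re-test of selected kinases used 0.5 µM in the standard format and again after a 4 hour pre-incubation with the inhibitor.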

CDK2 = CDK2 (Homo sapiens, UniProt P24941); assay: CDK2 kinase inhibition assay; format: biochemical; settings: read-out: CDK2 median inhibitory concentration [IC50]
Protocol: CDK2/cyclin A kinase assays were carried out using a method modified from [Brown et al. (1999)] or by using the ADP-Glo assay (Promega) essentially as described by the manufacturers. A full description of the assay formats is provided in the Supplemental Experimental Procedures.

[3] = 4hr RT preincubation, read-out: %Remaining activity at 0.5µM NU6300 - 4hr RT preincubation
[4] = usual format, read-out: %Remaining activity at 0.5µM NU6300 - Usual assay format

IC50 (CDK2) [nM]	Compound	%Remaining activity at 0.5µM NU6300 - 4hr RT preincubation (AMPK (hum); 4hr RT preincubation) [%]	%Remaining activity at 0.5µM NU6300 - Usual assay format (AMPK (hum); usual format) [%]	%Remaining activity at 0.5µM NU6300 - 4hr RT preincubation (GCK (MAP4K3); 0.5µM, 4hr RT preincubation) [%]	%Remaining activity at 0.5µM NU6300 - Usual assay format (GCK (MAP4K3); 0.5µM, usual format) [%]	additional loss of activity after pre-incubation (GCK (MAP4K3); 4-hr pre-incubation vs usual format, 0.5 µM) [%]	remaining activity at 0.5 µM (RSK1; [3]) [%]	remaining activity at 0.5 µM (RSK1; [4]) [%]	remaining activity at 0.5 µM (SIK2; [3]) [%]	remaining activity at 0.5 µM (SIK2; [4]) [%]	remaining activity at 0.5 µM (TAK1; [3]) [%]	remaining activity at 0.5 µM (TAK1; [4]) [%]	remaining activity at 0.5 µM (ROCK 2 [1]; [3]) [%]	remaining activity at 0.5 µM (ROCK 2 [1]; [4]) [%]	remaining activity at 0.5 µM (Src; [3]) [%]	remaining activity at 0.5 µM (Src; [4]) [%]	remaining activity at 0.5 µM (GSK3b; [3]) [%]	remaining activity at 0.5 µM (GSK3b; [4]) [%]	remaining activity at 1 µM (ROCK 2 [2]) [%]
–	C=CS(=O)(=O)c1ccc(Nc2nc(OCC3CCCCC3)c3nc[nH]c3n2)cc1 [NU6300, 6-(cyclohexylmethoxy)-N-(4-(vinylsulfonyl)phenyl)-9H-purin-2-amine]	73	70	29	89	> 50	131	83	69	39	24	19	47	46	54	48	81	80	25
160	CCS(=O)(=O)c1ccc(Nc2nc(OCC3CCCCC3)c3nc[nH]c3n2)cc1 [NU6310, 6-(cyclohexylmethoxy)-N-(4-(ethylsulfonyl)phenyl)-9H-purin-2-amine]	–	–	–	–	–	–	–	–	–	–	–	–	–	–	–	–	–	–
